Assay results reported in patent publication US6844443B2, “Benzimidazole derivatives, their production and use” (Takeda Pharmaceutical Company, Ltd., priority 1990, dated 2005).

Tests used:
A II receptor = molecular target: T1, A II receptor (Bos taurus, UniProt P25104); test: Inhibition of binding of angiotensin II to angiotensin receptor (radioreceptor assay); design: species or system bovine; Radioreceptor Assay 1 × 10^−7M / Radioreceptor Assay 1 × 10^−6M: unit not given here; details: for Radioreceptor Assay 1 × 10^−6M / Radioreceptor Assay 1 × 10^−7M / inhibition at 1 µM: inhibition of 125I-A II binding, bovine adrenal cortex membrane fraction; for Radioreceptor Assay 1 × 10^−6M / inhibition at 1 µM: compound 1 × 10^−6M; for Radioreceptor Assay 1 × 10^−7M: compound 1 × 10^−7M; for inhibition at 1 µM / inhibition at 0.1 µM: 1 h; for inhibition at 0.1 µM: read-out: Radioreceptor Assay 1 × 10^−7M
T1 construct: An A II receptor membrane fraction was prepared from bovine adrenal cortex; from tissue; host or cells: bovine adrenal cortex membrane fraction
T1 sequence (P25104 1-359): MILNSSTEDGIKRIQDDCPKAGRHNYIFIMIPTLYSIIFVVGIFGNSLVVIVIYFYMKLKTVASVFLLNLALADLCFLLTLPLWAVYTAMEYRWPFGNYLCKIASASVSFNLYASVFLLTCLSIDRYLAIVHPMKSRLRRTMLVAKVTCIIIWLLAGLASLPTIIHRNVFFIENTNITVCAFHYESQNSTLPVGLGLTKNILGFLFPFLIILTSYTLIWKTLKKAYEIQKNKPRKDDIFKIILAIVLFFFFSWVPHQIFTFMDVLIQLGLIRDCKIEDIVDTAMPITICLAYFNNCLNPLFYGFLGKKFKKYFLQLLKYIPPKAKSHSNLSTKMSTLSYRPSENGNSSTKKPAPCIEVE
Method: An experiment of inhibition on the binding of angiotensin II (A II) to A II receptor was conducted by modifying the method of Douglas et al. [Endocrinology, 102, 685-696 (1978)]. An A II receptor membrane fraction was prepared from bovine adrenal cortex.
The compound of the present invention (10 ^−6M or 10^−7M) and ^125I-angiotensin II (^125I-A II) (1.85 kBq/50 μl ) were added to the receptor membrane fraction, and the mixture was incubated at room temperature for one hour. The receptor-bound and free ^125I-A II were separated through a filter (Whatman GF/B filter), and the radioactivity of ^125I-A II bound to the receptor was measured.

[1] = test system: A II-induced pressor action; test: Inhibitory effect on pressor action of A II after oral administration; format: in vivo, Jcl: SD rats; details: for Pressor Response to A II (p.o.) 3 mg/kg: percent inhibition of pressor action of i.v. A II (100 ng/kg), 3 mg/kg p.o., rats; for inhibition in vivo at 3 mg/kg: Rattus norvegicus, po, read-out: Pressor Response to A II (p.o.) 3 mg/kg
Method: Jcl: SD rats (9 week old, male) were employed. On the previous day of the experiment, these animals were applied with cannulation into the femoral artery and vein under anesthesia with pentobarbital Na. The animals were fasted but allowed to access freely to drinking water until the experiment was started. Just on the day of conducting the experiment, the artery cannula was connected with a blood-pressure transducer, and the average blood pressure was recorded by means of polygraph. Before administration of the drug, the pressor action due to intravenous administration of A II (100 ng/kg) as the control was measured. The drugs were orally administered, then, at each point of the measurement, A II was administered intravenously, and the pressor action was similarly measured. By comparing the pressor action before and after administration of the drug, the percent inhibition by the drug on A II-induced pressor action was evaluated.

Structure (SMILES)	Radioreceptor Assay 1 × 10^−6M (A II receptor)	Radioreceptor Assay 1 × 10^−7M (A II receptor)	inhibition at 1 µM (A II receptor) [%]	inhibition at 0.1 µM (A II receptor) [%]	melting point [°C]	Pressor Response to A II (p.o.) 3 mg/kg [1]	inhibition in vivo at 3 mg/kg [1] [%]
CCOc1nc2cccc(C(=O)OCOC(=O)/C=C/c3ccccc3)c2n1Cc1ccc(-c2ccccc2-c2nnn[nH]2)cc1 [Example 60]	81	44	–	–	–	+++ (+++ ≧ 70%)	–
CCOC(=O)c1cccc2nc(SC)n(Cc3ccc(-c4ccccc4-c4nnn[nH]4)cc3)c12 [Example 33]	–	–	26	2	–	–	30 to 50
CCNc1nc2cccc(C(=O)OCOC(=O)C(C)(C)C)c2n1Cc1ccc(-c2ccccc2-c2nnn[nH]2)cc1 [Example 62]	–	–	87	48	–	–	≥ 70
CCOC(=O)c1cccc2nc(SCC)n(Cc3ccc(-c4ccccc4-c4nnn[nH]4)cc3)c12 [Example 34]	–	–	54	17	–	–	≥ 70
CCCC(=O)OCOC(=O)c1cccc2nc(OCC)n(Cc3ccc(-c4ccccc4-c4nnn[nH]4)cc3)c12 [Working Example 52, Butyryloxymethyl 2-ethoxy-1-[[2′-(1 H-tetrazol-5-yl)biphenyl-4-yl]methyl]benzimidazole-7-carboxylate]	–	–	–	–	96 to 100	–	–
CCOc1nc2cccc(C(=O)OCOC(=O)C3CCCCC3)c2n1Cc1ccc(-c2ccccc2-c2nnn[nH]2)cc1 [Working Example 58, Cyclohexylcarbonyloxymethyl 2-ethoxy-1-[[2′-(1 H-tetrazol-5-yl)biphenyl-4-yl]methyl]benzimidazole-7-carboxylate]	–	–	–	–	140 to 142	–	–
CCCSc1nc2cccc(C(=O)OCC)c2n1Cc1ccc(-c2ccccc2-c2nnn[nH]2)cc1 [Example 35]	–	–	32	7	–	–	–
CCOC(=O)OC(C)OC(=O)c1cccc2nc(OCC)n(Cc3ccc(-c4ccccc4-c4nnn[nH]4)cc3)c12 (centres unmarked) [Example 54]	–	–	81	42	–	–	≥ 70
CCNc1nc2cccc(C(=O)OC(C)OC(=O)OC3CCCCC3)c2n1Cc1ccc(-c2ccccc2-c2nnn[nH]2)cc1 (centres unmarked) [Example 63]	61	19	–	–	–	+++ (+++ ≧ 70%)	–
CCOc1nc2cccc(C(=O)OCOC(=O)C3CCCCC3)c2n1Cc1ccc(-c2ccccc2-c2nnn[nH]2)cc1 [Example 58]	–	–	84	55	–	–	≥ 70
CCOc1nc2cccc(C(=O)OCOC(=O)C3CCCC3)c2n1Cc1ccc(-c2ccccc2-c2nnn[nH]2)cc1 [Example 61]	–	–	89	54	–	–	≥ 70
CCOc1nc2cccc(C(=O)OCOC(=O)C(C)(C)C)c2n1Cc1ccc(-c2ccccc2-c2nnn[nH]2)cc1 [Example 43]	94	74	–	–	–	+++ (+++ ≧ 70%)	–
CCOc1nc2cccc(C(=O)OC(C)OC(=O)OC3CCCCC3)c2n1Cc1ccc(-c2ccccc2-c2nnn[nH]2)cc1 (centres unmarked) [Example 44]	77	32	–	–	–	+++ (+++ ≧ 70%)	–
CCCNc1nc2cccc(C(=O)OCC)c2n1Cc1ccc(-c2ccccc2-c2nnn[nH]2)cc1 [Example 41]	–	–	57	45	–	–	–
CCOc1nc2cccc(C(=O)OCc3oc(=O)oc3C)c2n1Cc1ccc(-c2ccccc2-c2nnn[nH]2)cc1 [Example 49]	–	–	91	66	–	–	≥ 70

Now from value to molecule, other results behind:

Radioreceptor Assay 1 × 10^−6M (A II receptor)	Radioreceptor Assay 1 × 10^−7M (A II receptor)	inhibition at 1 µM (A II receptor) [%]	inhibition at 0.1 µM (A II receptor) [%]	melting point [°C]	Structure (SMILES)	Pressor Response to A II (p.o.) 3 mg/kg [1]	inhibition in vivo at 3 mg/kg [1] [%]
–	–	89	58	–	CCOc1nc2cccc(C(=O)OC)c2n1Cc1ccc(-c2ccccc2-c2nnn[nH]2)cc1 [Example 39]	–	≥ 70
–	–	82	51	–	CSc1nc2cccc(C(=O)O)c2n1Cc1ccc(-c2ccccc2-c2nnn[nH]2)cc1 [Example 36]	–	≥ 70
–	–	91	63	–	CCOc1nc2cccc(C(=O)OC(C)OC(C)=O)c2n1Cc1ccc(-c2ccccc2-c2nnn[nH]2)cc1 (centres unmarked) [Example 55]	–	≥ 70
–	–	50	6	–	CCCSc1nc2cccc(C(=O)O)c2n1Cc1ccc(-c2ccccc2-c2nnn[nH]2)cc1 [Example 38]	–	≥ 70
–	–	80	41	–	CCSc1nc2cccc(C(=O)O)c2n1Cc1ccc(-c2ccccc2-c2nnn[nH]2)cc1 [Example 37]	–	≥ 70
–	–	79	41	–	CNc1nc2cccc(C(=O)O)c2n1Cc1ccc(-c2ccccc2-c2nnn[nH]2)cc1 [Example 57]	–	–
–	–	92	63	–	CCOc1nc2cccc(C(=O)OCOC(C)=O)c2n1Cc1ccc(-c2ccccc2-c2nnn[nH]2)cc1 [Example 50]	–	≥ 70
–	–	48	16	–	CCCOc1nc2cccc(C(=O)OCC)c2n1Cc1ccc(-c2ccccc2-c2nnn[nH]2)cc1 [Example 30]	–	≥ 70
–	–	84	48	–	CCCC(=O)OCOC(=O)c1cccc2nc(OCC)n(Cc3ccc(-c4ccccc4-c4nnn[nH]4)cc3)c12 [Example 52]	–	≥ 70
–	–	79	40	–	CCCOc1nc2cccc(C(=O)O)c2n1Cc1ccc(-c2ccccc2-c2nnn[nH]2)cc1 [Example 31]	–	≥ 70
–	–	85	55	–	CCOc1nc2cccc(C(=O)OCOC(=O)C(C)C)c2n1Cc1ccc(-c2ccccc2-c2nnn[nH]2)cc1 [Example 53]	–	≥ 70
–	–	84	44	–	CCOc1nc2cccc(C(=O)OCOC(=O)CC)c2n1Cc1ccc(-c2ccccc2-c2nnn[nH]2)cc1 [Example 51]	–	≥ 70
96	84	–	–	–	CCNc1nc2cccc(C(=O)O)c2n1Cc1ccc(-c2ccccc2-c2nnn[nH]2)cc1 [Example 47]	+++ (+++ ≧ 70%)	–
–	–	67	17	–	COC(=O)c1cccc2nc(OC)n(Cc3ccc(-c4ccccc4-c4nnn[nH]4)cc3)c12 [Example 45]	–	≥ 70
–	–	88	66	–	COc1nc2cccc(C(=O)O)c2n1Cc1ccc(-c2ccccc2-c2nnn[nH]2)cc1 [Example 46]	–	≥ 70
–	–	91	61	–	CCOc1nc2cccc(C(=O)O)c2n1Cc1ccc(-c2ccccc2-c2nnn[nH]2)cc1 [Example 29]	–	≥ 70
–	–	82	46	–	CCOC(=O)c1cccc2nc(OCC)n(Cc3ccc(-c4ccccc4-c4nnn[nH]4)cc3)c12 [Example 28]	–	≥ 70
–	–	92	67	–	CCCNc1nc2cccc(C(=O)O)c2n1Cc1ccc(-c2ccccc2-c2nnn[nH]2)cc1 [Example 48]	–	50 to 70
